# Molecular target: PdF1 γCC (PdF1) (Paracoccus denitrificans, UniProt A1B8N8+A1B8P0)
# Assay: single-molecule rotation assay, Mg-ADP inhibited pauses
# Format: biochemical
# Conditions: 1 µM ADP with 1 µM ATP, no ADP-trapping system, 0.1% LDAO
# PdF1 γCC (PdF1), sequence (A1B8P0 whole entry): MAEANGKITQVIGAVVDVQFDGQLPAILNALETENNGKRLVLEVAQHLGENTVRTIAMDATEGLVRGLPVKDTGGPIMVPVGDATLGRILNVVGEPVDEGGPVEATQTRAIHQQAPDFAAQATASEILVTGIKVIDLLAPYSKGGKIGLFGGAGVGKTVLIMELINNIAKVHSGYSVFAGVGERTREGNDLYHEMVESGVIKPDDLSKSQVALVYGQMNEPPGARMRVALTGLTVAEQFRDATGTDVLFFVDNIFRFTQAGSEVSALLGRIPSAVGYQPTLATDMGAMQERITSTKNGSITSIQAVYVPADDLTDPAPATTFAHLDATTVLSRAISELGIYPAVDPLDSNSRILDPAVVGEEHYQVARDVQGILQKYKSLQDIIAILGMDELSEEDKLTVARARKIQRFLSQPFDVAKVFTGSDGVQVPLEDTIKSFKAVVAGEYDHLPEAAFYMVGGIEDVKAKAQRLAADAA
# PdF1 γCC (PdF1), sequence (A1B8N8 whole entry): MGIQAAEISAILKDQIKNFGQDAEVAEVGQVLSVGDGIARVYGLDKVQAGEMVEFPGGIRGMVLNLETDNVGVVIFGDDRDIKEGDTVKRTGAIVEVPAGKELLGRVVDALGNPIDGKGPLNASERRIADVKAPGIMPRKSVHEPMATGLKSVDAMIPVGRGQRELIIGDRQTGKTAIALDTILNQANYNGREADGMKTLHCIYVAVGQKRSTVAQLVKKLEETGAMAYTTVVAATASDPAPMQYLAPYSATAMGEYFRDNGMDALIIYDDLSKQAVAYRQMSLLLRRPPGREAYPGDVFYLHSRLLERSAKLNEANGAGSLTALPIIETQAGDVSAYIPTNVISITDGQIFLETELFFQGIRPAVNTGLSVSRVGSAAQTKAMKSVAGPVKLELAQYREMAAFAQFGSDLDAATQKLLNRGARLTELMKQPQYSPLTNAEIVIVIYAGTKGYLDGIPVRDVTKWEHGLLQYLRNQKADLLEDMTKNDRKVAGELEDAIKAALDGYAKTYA
# PdF1 γCC (PdF1), sequence (A1B8N9 whole entry Q115C/D214C partner): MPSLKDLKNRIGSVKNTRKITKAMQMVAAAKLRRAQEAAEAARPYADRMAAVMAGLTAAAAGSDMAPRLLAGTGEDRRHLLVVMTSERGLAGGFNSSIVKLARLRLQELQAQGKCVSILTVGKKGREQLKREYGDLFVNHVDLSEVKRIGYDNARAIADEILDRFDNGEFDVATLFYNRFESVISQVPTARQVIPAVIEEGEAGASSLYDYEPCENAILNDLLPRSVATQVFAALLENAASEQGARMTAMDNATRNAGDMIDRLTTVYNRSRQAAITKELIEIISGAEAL
# PdF1 γCC (PdF1), sequence (A1B8N7 whole entry partner): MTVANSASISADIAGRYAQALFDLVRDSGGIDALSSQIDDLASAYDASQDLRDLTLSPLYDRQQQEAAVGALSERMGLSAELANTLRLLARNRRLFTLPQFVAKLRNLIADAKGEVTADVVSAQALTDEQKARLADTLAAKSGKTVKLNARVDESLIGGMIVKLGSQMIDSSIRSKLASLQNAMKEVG
# PdF1 γCC (PdF1), sequence (A1B8P1 whole entry partner): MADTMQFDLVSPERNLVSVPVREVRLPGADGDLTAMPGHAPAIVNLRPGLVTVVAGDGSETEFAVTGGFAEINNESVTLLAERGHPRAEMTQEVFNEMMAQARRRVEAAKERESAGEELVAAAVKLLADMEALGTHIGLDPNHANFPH
compound,measurement,value
Nc1ncnc2c1ncn2[C@@H]1O[C@H](COP(=O)(O)OP(=O)(O)O)[C@@H](O)[C@H]1O [ADP],"single-molecule rotation assay, Mg-ADP inhibited pauses",supporting the conclusion that they are a result of Mg-ADP inhibition

# — paper PMC7703542 (Proceedings of the National Academy of Sciences of the …, 2020)
